US20220396569A1 (Carmot Therapeutics, Inc., priority 2021, published 2022)

Molecular target: T1, human GLP-1 receptor (Homo sapiens, UniProt P43220)
T1 construct: expressed in transfected cells
Experiment: GLP-1R cAMP Assay (HitHunter cAMP accumulation)
Type: cell-based
Conditions: EC50, cAMP accumulation, CHO cells stably overexpressing human GLP-1 receptor, 30 min treatment
Procedure, shortened: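 CHO cells stably expressing human GLP-1R, 10,000 cells/well in HBSS with 10 mM HEPES and 625 μM IBMX, were mixed with anti-cAMP antibody reagent. Compound was applied as a 20-point dose response in triplicate for 30 min. After lysis and overnight detection, luminescence was read and dose-response curves analysed.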

T1 sequence (P43220 24-463): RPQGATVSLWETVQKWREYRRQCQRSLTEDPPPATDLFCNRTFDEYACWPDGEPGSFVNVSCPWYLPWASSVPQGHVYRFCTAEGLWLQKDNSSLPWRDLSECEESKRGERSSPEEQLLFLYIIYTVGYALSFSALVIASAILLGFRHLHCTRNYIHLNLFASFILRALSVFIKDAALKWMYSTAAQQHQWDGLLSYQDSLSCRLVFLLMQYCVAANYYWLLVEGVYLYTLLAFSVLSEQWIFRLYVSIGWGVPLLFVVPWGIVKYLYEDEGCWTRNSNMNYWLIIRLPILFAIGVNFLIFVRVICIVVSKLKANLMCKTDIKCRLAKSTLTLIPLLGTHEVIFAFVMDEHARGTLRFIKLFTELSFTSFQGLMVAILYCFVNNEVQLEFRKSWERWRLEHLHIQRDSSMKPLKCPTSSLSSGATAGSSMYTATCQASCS

Structure (SMILES) | EC50 [nM]
O=C(O)c1cc(F)c2nc(CN3CC[C@H](Oc4ccnc(COc5ccc(Cl)cc5F)n4)C3)n(CC3CCO3)c2c1 (stereo partly drawn) [Compound 361, 2-{[(3S)-3-({2-[(4-chloro-2-fluorophenoxy)methyl]pyrimidin-4-yl}oxy)pyrrolidin-1-yl]methyl}-4-fluoro-1-[(oxetan-2-yl)methyl]-1H-1,3-benzodiazole-6-carboxylic acid] | < 50

Same assay, conditions: cAMP accumulation, CHO cells stably overexpressing human GLP-1 receptor, 30 min treatment; read-out: EC50

Structure (SMILES) | EC50 [nM]
O=C(O)c1ccc2nc(CN3CC=C(c4cccc(COc5ccc(Cl)cc5F)c4F)C3)n(C[C@@H]3CCO3)c2c1 [Compound 426, 2-[(3-{3-[(4-chloro-2-fluorophenoxy)methyl]-2-fluorophenyl}-2,5-dihydro-1H-pyrrol-1-yl)methyl]-1-{[(2S)-oxetan-2-yl]methyl}-1H-1,3-benzodiazole-6-carboxylic acid] | 50 to 500
N#Cc1ccc(OCc2nc(N3CC[C@@H](Cc4nc5ccc(C(=O)O)cc5n4C[C@@H]4CCO4)C3)ccc2F)c(F)c1 [Compound 533, 2-(((S)-1-(6-((4-Cyano-2-fluorophenoxy)methyl)-5-fluoropyridin-2-yl)pyrrolidin-3-yl)methyl)-1-(((S)-oxetan-2-yl)methyl)-1H-benzo[d]imidazole-6-carboxylic acid] | < 50
CCn1cncc1Cn1c(CN2CCC(Cc3cccc4c3O[C@](C)(c3ccc(Cl)cc3F)O4)CC2)nc2ccc(C(=O)O)cc21 (single isomer, unassigned) [Compound 222] | < 50
N#Cc1ccc(OCc2nc(C34CC3CN(Cc3nc5c(F)cc(C(=O)O)cc5n3C[C@@H]3CCO3)C4)ccc2F)c(F)c1 (stereo partly drawn) [Compound 523, 2-[(1-{6-[(4-cyano-2-fluorophenoxy)methyl]-5-fluoropyridin-2-yl}-3-azabicyclo[3.1.0]hexan-3-yl)methyl]-4-fluoro-1-{[(2S)-oxetan-2-yl]methyl}-1H-1,3-benzodiazole-6-carboxylic acid] | < 50
CCn1cncc1Cn1c(CN2CCC(Cn3ccc(COc4ccc(Cl)cc4Cl)n3)CC2)nc2ccc(C(=O)O)cc21 [Example 281, 2-((4-((3-((2,4-Dichlorophenoxy)methyl)-1H-pyrazol-1-yl)methyl)piperidin-1-yl)methyl)-1-((1-ethyl-1H-imidazol-5-yl)methyl)-1H-benzo[d]imidazole-6-carboxylic acid] | < 50
CCn1cncc1Cn1c(CN2C[C@@H](Oc3cccc(COc4ccc(Cl)cc4Cl)c3)[C@@H]2C)nc2ccc(C(=O)O)cc21 [Compound 234, 2-{[(2S,3R)-3-{3-[(2,4-dichlorophenoxy)methyl]phenoxy}-2-methylazetidin-1-yl]methyl}-1-[(1-ethyl-1H-imidazol-5-yl)methyl]-1H-1,3-benzodiazole-6-carboxylic acid] | < 50
CCn1cncc1Cn1c(Cc2ccc(Oc3cccc(COc4ccc(Cl)cc4F)n3)cc2F)nc2ccc(C(=O)O)cc21 [Compound 463, 2-{[4-({6-[(4-chloro-2-fluorophenoxy)methyl]pyridin-2-yl}oxy)-2-fluorophenyl]methyl}-1-[(1-ethyl-1H-imidazol-5-yl)methyl]-1H-1,3-benzodiazole-6-carboxylic acid] | < 50
O=C(O)c1ccc2nc(CN3CCC(Cn4ccc(COc5ccc(Cl)cc5Cl)n4)CC3)n(C[C@@H]3CCO3)c2c1 [Example 127, (S)-2-((4-((3-((2,4-dichlorophenoxy)methyl)-1H-pyrazol-1-yl)methyl)piperidin-1-yl)methyl)-1-(oxetan-2-ylmethyl)-1H-benzo[d]imidazole-6-carboxylic acid] | < 50
O=C(O)c1ccc2nc(CN3CCC(c4cc(COc5ccc(Cl)cc5F)ccn4)C3)n(Cc3ncco3)c2c1 (stereo not drawn) [Compound 398, 2-[(3-{4-[(4-chloro-2-fluorophenoxy)methyl]pyridin-2-yl}pyrrolidin-1-yl)methyl]-1-[(1,3-oxazol-2-yl)methyl]-1H-1,3-benzodiazole-6-carboxylic acid] | < 50
C[C@H]1[C@@H](Oc2ccnc(COc3ccc(F)cc3F)n2)CN1Cc1nc2ccc(C(=O)O)cc2n1C[C@@H]1CCO1 [Compound 548] | < 50
O=C(O)c1ccc2nc(CN3CC(Cc4cnc(COc5ccc(Cl)cc5Cl)o4)C3)n(C[C@@H]3CCO3)c2c1 [Compound 191] | < 50
O=C(O)c1ccc2nc(CN3CC=C(c4cc(F)cc(COc5ccc(Cl)cc5F)c4)C3)n(C[C@@H]3CCO3)c2c1 [Compound 418, 2-[(3-{3-[(4-chloro-2-fluorophenoxy)methyl]-5-fluorophenyl}-2,5-dihydro-1H-pyrrol-1-yl)methyl]-1-{[(2S)-oxetan-2-yl]methyl}-1H-1,3-benzodiazole-6-carboxylic acid] | < 50
O=C(O)c1ccc2nc(CN3CC[C@H](c4cccc(COc5ccc(Cl)cc5Cl)c4)C3)n(C[C@@H]3CCO3)c2c1 (single isomer, unassigned) [Example 406] | < 50
N#Cc1ccc(OCc2nccc(Oc3ccc(Cc4nc5ccc(C(=O)O)cc5n4C[C@@H]4CCO4)c(F)c3)n2)c(F)c1 [Compound 465, 2-{[4-({2-[(4-cyano-2-fluorophenoxy)methyl]pyrimidin-4-yl}oxy)-2-fluorophenyl]methyl}-1-{[(2S)-oxetan-2-yl]methyl}-1H-1,3-benzodiazole-6-carboxylic acid] | < 50
O=C(O)c1ccc2nc(Cc3cc(F)c(Oc4ccnc(COc5ccc(Cl)cc5F)c4)cc3F)n(C[C@@H]3CCO3)c2c1 [Compound 536, (S)-2-(4-((2-((4-Chloro-2-fluorophenoxy)methyl)pyridin-4-yl)oxy)-2,5-difluorobenzyl)-1-(oxetan-2-ylmethyl)-1H-benzo[d]imidazole-6-carboxylic acid] | < 50
N#CCC1(Cn2c(Cc3ccc(Oc4cccc(COc5ccc(C#N)cc5F)n4)cc3F)nc3c(F)cc(C(=O)O)cc32)CC1 [Compound 469, 2-{[4-({6-[(4-cyano-2-fluorophenoxy)methyl]pyridin-2-yl}oxy)-2-fluorophenyl]methyl}-1-{[1-(cyanomethyl)cyclopropyl]methyl}-4-fluoro-1H-1,3-benzodiazole-6-carboxylic acid] | < 50
CCn1cncc1Cn1c(CN2CC(=Cc3ccnc(COc4ccc(Cl)cc4Cl)c3)C2)nc2ccc(C(=O)O)cc21 [Compound 175, 2-{[3-({2-[(2,4-dichlorophenoxy)methyl]pyridin-4-yl}methylidene)azetidin-1-yl]methyl}-1-[(1-ethyl-1H-imidazol-5-yl)methyl]-1H-1,3-benzodiazole-6-carboxylic acid] | < 50
O=C(O)c1ccc2nc(CN3CC=C(c4ccnc(COc5ccc(Cl)cc5Cl)c4)C3)n(C[C@@H]3CCO3)c2c1 [Compound 402, 2-[(3-{2-[(2,4-dichlorophenoxy)methyl]pyridin-4-yl}-2,5-dihydro-1H-pyrrol-1-yl)methyl]-1-{[(2S)-oxetan-2-yl]methyl}-1H-1,3-benzodiazole-6-carboxylic acid] | < 50
N#Cc1ccc(OCc2ccc(F)c(C3CCN(Cc4nc5ccc(C(=O)O)cc5n4C[C@@H]4CCO4)C3)n2)c(F)c1 (stereo partly drawn) [Compound 520, 2-[(3-{6-[(4-cyano-2-fluorophenoxy)methyl]-3-fluoropyridin-2-yl}pyrrolidin-1-yl)methyl]-1-{[(2S)-oxetan-2-yl]methyl}-1H-1,3-benzodiazole-6-carboxylic acid] | < 50
O=C(O)c1ccc2nc(CN3CC(Oc4cccc(COc5ccc(Cl)cc5Cl)c4)C3)n(Cc3ccno3)c2c1 [Compound 237, 2-[(3-{3-[(2,4-dichlorophenoxy)methyl]phenoxy}azetidin-1-yl)methyl]-1-[(1,2-oxazol-5-yl)methyl]-1H-1,3-benzodiazole-6-carboxylic acid] | < 50
N#Cc1ccc(OCc2nc(C3=CCN(Cc4nc5ccc(C(=O)O)cc5n4CC4(CC(N)=O)CC4)C3)ccc2F)c(F)c1 [Compound 423, 1-{[1-(carbamoylmethyl)cyclopropyl]methyl}-2-[(3-{6-[(4-cyano-2-fluorophenoxy)methyl]-5-fluoropyridin-2-yl}-2,5-dihydro-1H-pyrrol-1-yl)methyl]-1H-1,3-benzodiazole-6-carboxylic acid] | 50 to 500
CCn1cncc1Cn1c(CN2CC(=Cc3cnc(COc4ccc(Cl)cc4C#N)o3)C2)nc2ccc(C(=O)O)cc21 [Compound 225, 2-{[3-({2-[(4-chloro-2-cyanophenoxy)methyl]-1,3-oxazol-5-yl}methylidene)azetidin-1-yl]methyl}-1-[(1-ethyl-1H-imidazol-5-yl)methyl]-1H-1,3-benzodiazole-6-carboxylic acid] | < 50
O=C(O)c1ccc2nc(CN3CC(Oc4cnc(COc5ccc(Cl)cc5Cl)o4)C3)n(C[C@@H]3CCO3)c2c1 [Example 213, (S)-2-((3-((2-((2,4-Dichlorophenoxy)methyl)oxazol-5-yl)oxy)azetidin-1-yl)methyl)-1-(oxetan-2-ylmethyl)-1H-benzo[d]imidazole-6-carboxylic acid] | < 50
O=C(O)c1ccc2nc(CN3CCC(c4nc(COc5ccc(Cl)cc5F)ccc4F)C3)n(C[C@@H]3CCO3)c2c1 (stereo partly drawn) [Compound 456, 2-[(3-{6-[(4-chloro-2-fluorophenoxy)methyl]-3-fluoropyridin-2-yl}pyrrolidin-1-yl)methyl]-1-{[(2S)-oxetan-2-yl]methyl}-1H-1,3-benzodiazole-6-carboxylic acid] | < 50
CCn1cncc1Cn1c(CN2CC(Cc3cnc(COc4ccc(Cl)cc4C#N)o3)C2)nc2ccc(C(=O)O)cc21 [Compound 167, 2-{[3-({2-[(4-chloro-2-cyanophenoxy)methyl]-1,3-oxazol-5-yl}methyl)azetidin-1-yl]methyl}-1-[(1-ethyl-1H-imidazol-5-yl)methyl]-1H-1,3-benzodiazole-6-carboxylic acid] | < 50
O=C(O)c1ccc2nc(CN3CC=C(c4cc(COc5ccc(Cl)cc5F)ccn4)C3)n(Cc3ncco3)c2c1 [Compound 394, 2-[(3-{4-[(4-chloro-2-fluorophenoxy)methyl]pyridin-2-yl}-2,5-dihydro-1H-pyrrol-1-yl)methyl]-1-[(1,3-oxazol-2-yl)methyl]-1H-1,3-benzodiazole-6-carboxylic acid] | 50 to 500
